Article PMC9658586, “1,4-Naphthoquinone Motif in the Synthesis of New Thiopyrano[2,3-d]thiazoles as Potential Biologically Active Compounds” (Molecules, 2022)
pIC50: −log10 of the molar value. Where two headings read alike, the source gives them in different places.

Legend:
[1] = test system: human chronic myelogenous leukemia K562 cells; assay: MTT cell viability assay, K562; type: cell-based; conditions: Homo sapiens, K562, 72 h
Procedure: (§1) The MTT cell viability assay was performed 72 h after cells treatment with various concentrations of studied compounds and doxorubicin, a reference drug. […] It is known that ABCB1 (P-glycoprotein), MRP1/ABCC1 (multidrug resistance protein 1), and BCRP/BCG2 (breast cancer resistance protein) have been reported to be key players in resistance to chemotherapy. […] The p53 has diverse mutations in almost all human tumors, stimulating their hyper-proliferation, invasion/metastasis, and thus, influencing the potency of various chemotherapeutics (i.e., platins and anti-metabolites).
(§2) Human colon carcinoma HCT116 cells, human breast adenocarcinoma cells of MCF-7 line, human T-leukemia Jurkat cells, human chronic myelogenous leukemia K562 cells, and human keratinocytes of HaCaT line were from the Cell Collection of R.E. Kavetsky Institute of Experimental Pathology, Oncology and Radiobiology (Kyiv, Ukraine). Murine macrophages of J774.2 line were a generous gift from Professor Sir John Vane (William Harvey Research Institute, London, UK) via Professor Janusz Marcinkiewicz (Jagiellonian University Medical College, Krakow, Poland). Human colon carcinoma HCT116 p53-/- cells with knockdown of P53 gene, as well as human epidermoid cervix carcinoma KB3-1 cells and its ABCB1-overexpressing subline KBC-1, were kindly provided by Professor W. Berger (Institute of Cancer Research, Medical University of Vienna, Austria). […] Human leukemia monocytic THP-1 cells were kindly provided by Professor M. Herrmann (Department of Internal Medicine, Institute for Clinical Immunology and Rheumatology, University of Erlangen-Nuremberg, Germany). Cells were cultured in DMEM or RPMI-1640 medium supplemented with 10% fetal bovine serum (all were purchased from Biowest, Nuaille, France) at 37 °C in a humidified atmosphere containing 5% CO2.
(§3) MTT assay was used to examine the viability of tumor and pseudo-normal cells after their treatment with studied thiopyrano[2,3-d]thiazole derivatives and doxorubicin (Actavis S.R.L., Bucharest, Romania). Cells were seeded in 96-well plates at a density of 3–5 × 103. After 24 h, cells were treated with compound […], 1,4-NQ (0.1–100 µM), and doxorubicin (0.1–100 µM). After incubation for 72 h, MTT reagent (Sigma-Aldrich, St. Louis, MO, USA) was added to each well, according to the Sigma-Aldrich protocol. An absorbance Reader BioTek ELx800 (BioTek Instruments, Inc., Winooski, VT, USA) was used to measure the reaction product.

[2] = test system: KB3-1 cells; assay: Fluorescence microscopy of cells, Hoechst-33342 staining; type: cell-based, human; conditions: 1 µM, 24 h
Procedure: One can also see giant KB3-1 cells with abnormal nuclei and looser chromatin (Figure 7B). The mitotic catastrophe may occur during or after aberrant mitosis. Mitotic catastrophe has been reported as a special example of apoptosis affecting mitochondrial membrane permeabilization and caspase activation. […] Thus, compound 3.6 induced pro-apoptotic cytomorphological changes in treated KB3-1 cells.
The KB3-1 cells were seeded in 24-well plates at 5 × 10^5/mL and then treated for an additional 24 h with compound […] (1 μM) and doxorubicin (1 μM). Cells were stained with 0.2–0.5 µg/mL of Hoechst-33342 and incubated for 20–30 min before the cell examination. A Zeiss fluorescent microscope (Carl Zeiss, Jena, Germany), AxioImager A1 camera (at 400× magnification), and AxioVision image analysis software Release 4.6.3.0 for Carl Zeis microscopy (Imaging Associates Ltd., Cork, Ireland, UK) were used for cells examination. All microphotographs were additionally analyzed using ImagePro7 software (Media Cybernetics, Rockville, MD, USA).

[3] = test system: human keratinocytes of HaCaT line; assay: MTT cell viability assay, HaCaT; type: cell-based; conditions: 72 h, pseudo-normal cells
Procedure: as §1
as §2, with “Cells were cultured in DMEM or RPMI-1640 medium supplemented with 10% fetal bovine serum (all were purchased from Biowest, Nuaille, France) at 37 °C in a humidified atmosphere containing 5% CO2.” left out
(§4) MTT assay was used to examine the viability of tumor and pseudo-normal cells after their treatment with studied thiopyrano[2,3-d]thiazole derivatives and doxorubicin (Actavis S.R.L., Bucharest, Romania). […] An absorbance Reader BioTek ELx800 (BioTek Instruments, Inc., Winooski, VT, USA) was used to measure the reaction product.

[4] = test system: human epidermoid cervix carcinoma KB3-1 cells; assay: MTT cell viability assay, KB3-1; type: cell-based; conditions: Homo sapiens, KB 3-1, 72 h
Procedure: as §1, §2, §3

[5] = test system: Human colon carcinoma HCT116 p53-/- cells; assay: MTT cell viability assay, HCT116 p53-/-; type: cell-based; conditions: for pIC50: Homo sapiens, read-out: IC50, HCT116 p53-/-
Procedure: as §1, §2, §3

[6] = test system: KBC-1 (ABCB1-overexpressing subline of KB3-1); assay: MTT cell viability assay, KBC-1; type: cell-based; conditions: Homo sapiens, 72 h
Procedure: as §1
as §2, with “Cells were cultured in DMEM or RPMI-1640 medium supplemented with 10% fetal bovine serum (all were purchased from Biowest, Nuaille, France) at 37 °C in a humidified atmosphere containing 5% CO2.” left out
as §4

[7] = test system: salmon sperm DNA; assay: DNA/methyl green colorimetric (replacement) assay; type: binding
Procedure: In addition, we used DNA/methyl green colorimetric assay to study the possible interaction of compound 3.6 in DNA. […] This assay was used to measure the displacement of methyl green from DNA by compounds with the ability to intercalate DNA [54].
The capacity of the tested compounds to intercalate into salmon sperm DNA was determined using the methyl green assay. Briefly, salmon sperm DNA (10 mg/mL) was incubated for 1 h at 37 °C with 15 µL of methyl green solution (1 mg/mL in H2O). The compounds were added at concentrations 1 and 10 µM/mL and incubated at 37 °C in the dark for 2 h. Reduction of the absorbance of methyl green at 642 nm induced by the test compounds was measured with a multiplate reader, Plate Reader BioTek Lx80 ( BioTek Instruments, Inc., Winooski, VT, USA). Doxorubicin, a well-known intercalating agent, was used as a positive control.

[8] = test system: Human leukemia monocytic THP-1 cells; assay: MTT cell viability assay, THP-1; type: cell-based; conditions: 72 h
Procedure: as §1
Human colon carcinoma HCT116 cells, human breast adenocarcinoma cells of MCF-7 line, human T-leukemia Jurkat cells, human chronic myelogenous leukemia K562 cells, and human keratinocytes of HaCaT line were from the Cell Collection of R.E. Kavetsky Institute of Experimental Pathology, Oncology and Radiobiology (Kyiv, Ukraine). […]
as §4

[9] = test system: Murine macrophages of J774.2 line; assay: MTT cell viability assay, J774.2; type: cell-based; conditions: pseudo-normal murine macrophages
Procedure: as §1, §2, §3

For `O=C1C2=C(C(=O)c3ccccc31)C(CCc1ccccc1)c1sc(=O)[nH]c1S2` (stereo not drawn) [Compound 3.6, 11-Phenethyl-3,11-dihydro-2H-benzo[6,7]thiochromeno[2,3-d]thiazole-2,5,10-trione], the pIC50 [1] was 4.59, the cytomorphological alterations [2] was “shrunk, with condensed chromatin and membrane blabbing” and the pIC50 ([3]; Homo sapiens, HaCaT) was less than 4.00. For the same compound, the pIC50 [4] was 4.56, the “cytotoxic action on p53-deficient colon carcinoma cells relative to HCT116wt” value ([5]; HCT116 p53-/- vs HCT116wt) was “two times weaker” and the pIC50 ([5]; HCT-116, MTT, 72 h) was 4.91. For the same compound, the pIC50 [6] was 4.89, the “percentage of methyl green replacement” value ([7]; dependent on concentration (1 and 10 µM)) was 35.00 to 39.64% and the pIC50 [8] was 5.10. For the same compound, the pIC50 ([9]; Mus musculus, J774.2, 72 h) was 5.02.
In the case of `COc1cccc2c1C(=O)c1c(O)c3c(c(O)c1C2=O)C[C@@](O)(C(=O)CO)C[C@@H]3O[C@H]1C[C@H](N)[C@H](O)[C@H](C)O1` [Doxorubicin, doxorubicin, reference compound], the pIC50 [1] was 6.21, the cytomorphological alterations [2] was “chromatin condensation and membrane blabbing” and the pIC50 ([3]; listed as Dox) was 6.10. The pIC50 ([3]; Homo sapiens, HaCaT) was 6.00 to 6.10, the pIC50 [4] was 6.14 and the pIC50 ([5]; HCT-116, 72 h) was 6.24. For the same compound, the pIC50 [6] was 5.71, the methyl green replacement ([7]; 10 µM, compared with compound 3.6) was “two times more effective” and the pIC50 [8] was 4.85. The pIC50 ([9]; 72 h, listed as Dox) was 6.01 and the pIC50 ([9]; Mus musculus, J774.2, 72 h) was 6.00 to 6.10.
